# Data from ChEMBL document CHEMBL5260825, “Chemical Constituents of Bryophytes: Structures and Biological Activity” (J Nat Prod, 2018).
# Where “and” joins values, the source holds several entries; their conditions need not be identical. Equal entries are not always repeated.
# Columns and labels:
# [1] = tested on: HepG2; assay: Antiproliferative activity against human HepG2 cells assessed as cell growth inhibition; format: functional, cell-based
# [2] = tested on: Candida albicans; assay: Antifungal activity against Candida albicans assessed as inhibition of fungal growth by MTT assay; format: functional
# [3] = biological target: T1, Polyunsaturated fatty acid 5-lipoxygenase (Homo sapiens) (UniProt P09917); assay: Inhibition of ALOX5 (unknown origin) assessed as reduction in calmodulin level
# T1 sequence (whole entry): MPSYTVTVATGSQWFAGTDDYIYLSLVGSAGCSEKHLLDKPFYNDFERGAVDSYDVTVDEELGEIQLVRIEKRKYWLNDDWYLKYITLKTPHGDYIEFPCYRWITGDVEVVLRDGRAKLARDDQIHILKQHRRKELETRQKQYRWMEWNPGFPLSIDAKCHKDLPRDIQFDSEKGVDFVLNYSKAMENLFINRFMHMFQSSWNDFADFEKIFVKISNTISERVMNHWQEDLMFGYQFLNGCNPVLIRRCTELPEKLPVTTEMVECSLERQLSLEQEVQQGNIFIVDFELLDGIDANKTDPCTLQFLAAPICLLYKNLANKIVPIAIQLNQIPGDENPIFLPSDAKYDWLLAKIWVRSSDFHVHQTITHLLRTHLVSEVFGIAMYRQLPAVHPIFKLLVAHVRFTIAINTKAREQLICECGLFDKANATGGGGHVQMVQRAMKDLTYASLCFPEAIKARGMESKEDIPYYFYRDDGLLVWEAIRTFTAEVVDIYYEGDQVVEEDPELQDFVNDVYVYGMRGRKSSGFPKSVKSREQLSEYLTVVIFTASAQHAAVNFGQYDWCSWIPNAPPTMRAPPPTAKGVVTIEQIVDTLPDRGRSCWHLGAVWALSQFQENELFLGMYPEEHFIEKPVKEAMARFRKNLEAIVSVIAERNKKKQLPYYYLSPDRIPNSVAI
# [4] = tested on: Bacillus subtilis; assay: Antibacterial activity against Bacillus subtilis assessed as inhibition of bacterial growth; format: functional
# [5] = biological target: DNA polymerase beta (Homo sapiens, UniProt P06746); assay: Inhibition of DNA polymerase beta (unknown origin)
# [6] = tested on: Human immunodeficiency virus 1; assay: Antiviral activity against HIV-1; format: functional, organism-based
# [7] = biological target: T1, Polyunsaturated fatty acid 5-lipoxygenase (Homo sapiens); assay: Inhibition of ALOX5 (unknown origin) at 0.000001 M relative to control; details: dose 1 µM
# [8] = tested on: Leishmania donovani; assay: […] activity against drug sensitive Leishmania donovani assessed as inhibition of parasite growth; format: functional, organism-based
# [9] = tested on: Plasmodium falciparum; assay: Antimalarial activity against drug sensitive Plasmodium falciparum KI assessed as inhibition of parasite growth; format: functional, organism-based
# [10] = tested on: Plasmodium falciparum; assay: Antimalarial activity against drug sensitive Plasmodium falciparum NF54 assessed as inhibition of parasite growth; format: functional, organism-based
# [11] = tested on: Pyricularia oryzae; assay: Antifungal activity against Pyricularia oryzae assessed as inhibition of microbial growth; format: functional, organism-based
# [12] = tested on: Haemophilus influenzae; assay: Antibacterial activity against Haemophilus influenzae assessed as inhibition of bacterial growth; format: functional
# [13] = tested on: Aspergillus niger; assay: Antifungal activity against Aspergillus niger assessed as inhibition of microbial growth; format: functional
# [14] = organism: Homo sapiens; assay: Inhibition of LTB3 (unknown origin) at 0.0000001 M relative to control; details: dose 100 nM
# [15] = tested on: Priestia megaterium; assay: Antibacterial activity against Bacillus megaterium assessed as inhibition of bacterial growth; format: functional
# [16] = organism: Rattus norvegicus; assay: Inhibition of iron-induced lipid peroxidation in rat brain homogenate; format: functional
# [17] = Inhibition of plasmodium falciparum fabZ
# [18] = tested on: Streptococcus viridans; assay: Antibacterial activity against Streptococcus viridans assessed as inhibition of bacterial growth; format: functional
# [19] = biological target: Cyclooxygenase (Homo sapiens, UniProt P35354+P23219); assay: Inhibition of COX (unknown origin); format: protein assay
# [20] = tested on: Trypanosoma brucei rhodesiense; assay: […] activity against drug sensitive Trypanosoma brucei rhodesiense assessed as inhibition of parasite growth; format: functional, organism-based
# [21] = tested on: Streptococcus pyogenes; assay: Antibacterial activity against Streptococcus pyogenes assessed as inhibition of bacterial growth; format: functional
# [22] = organism: Homo sapiens; assay: Inhibition of LTB3 (unknown origin) at 0.00000001 M relative to control; details: dose 10 nM
# [23] = tested on: Neisseria meningitidis; assay: Antibacterial activity against Neisseria meningitidis assessed as inhibition of bacterial growth; format: functional
# [24] = tested on: Breast carcinoma cell; assay: Antiproliferative activity against human Breast cancer cell line assessed as cell growth inhibition; format: functional, cell-based
# [25] = Antioxidant activity assessed as DPPH radical scavenging activity; format: functional
# [26] = biological target: Calmodulin-1 (Homo sapiens) (UniProt P0DP23); assay: Inhibition of calmodulin (unknown origin)
# [27] = tested on: Bacillus cereus; assay: Antibacterial activity against Bacillus cereus assessed as inhibition of bacterial growth; format: functional
# [28] = tested on: Trypanosoma brucei brucei; assay: Antitrypanosomal activity against bloodstream Trypanosoma brucei brucei assessed as parasite growth inhibition measured after 72 hrs by alamar blue assay; format: functional, organism-based
# [29] = biological target: T1, Polyunsaturated fatty acid 5-lipoxygenase (Homo sapiens); assay: Inhibition of ALOX5 (unknown origin) at 0.00001 M relative to control; details: dose 10 µM
# [30] = biological target: T1, Polyunsaturated fatty acid 5-lipoxygenase (Homo sapiens); assay: Inhibition of ALOX5 (unknown origin) at 0.0000001 M relative to control; details: dose 100 nM
# [31] = biological target: T1, Polyunsaturated fatty acid 5-lipoxygenase (Homo sapiens); assay: Inhibition of ALOX5 (unknown origin) assessed as reduction in 5-HETE formation
# [32] = tested on: Acinetobacter calcoaceticus; assay: Antibacterial activity against Acinetobacter calcoaceticus assessed as inhibition of bacterial growth; format: functional
# [33] = tested on: Rhizoctonia solani; assay: Antifungal activity against Rhizoctonia solani assessed as inhibition of microbial growth; format: functional
# [34] = biological target: T1, Polyunsaturated fatty acid 5-lipoxygenase (Homo sapiens); assay: Inhibition of ALOX5 (unknown origin) at 0.00000001 M relative to control; details: dose 10 nM
# [35] = organism: Homo sapiens; assay: Inhibition of LTB3 (unknown origin) at 0.000001 M relative to control; details: dose 1 µM
# [36] = tested on: Pasteurella multocida; assay: Antibacterial activity against Pasteurella multocida assessed as inhibition of bacterial growth; format: functional
# [37] = tested on: Cryptococcus neoformans; assay: […] activity against Cryptococcus neoformans assessed as inhibition of […]; format: functional
# [38] = tested on: Trichophyton mentagrophytes; assay: Antifungal activity against Trichophyton mentagrophytes assessed as inhibition of microbial growth; format: functional
# [39] = tested on: KB; assay: Antiproliferative activity against human KB cells assessed as cell growth inhibition; format: functional, cell-based
# [40] = tested on: Staphylococcus aureus; assay: Antibacterial activity against Staphylococcus aureus assessed as inhibition of bacterial growth; format: functional
# [41] = organism: Homo sapiens; assay: Inhibition of LTB3 (unknown origin) at 0.00001 M relative to control; details: dose 10 µM
# [42] = tested on: Trypanosoma cruzi; assay: […] activity against drug sensitive Trypanosoma cruzi assessed as inhibition of parasite growth; format: functional, organism-based
# [43] = tested on: MCF7; assay: Antiproliferative activity against human MCF7 cells assessed as cell growth inhibition; format: functional, cell-based
# [44] = tested on: Phytophthora infestans; assay: Antifungal activity against Phytophthora infestans assessed as inhibition of microbial growth by microtiter plate based analysis; format: functional, organism-based
# [45] = tested on: Botrytis cinerea; assay: Antifungal activity against Botrytis cinerea assessed as inhibition of microbial growth by microtiter plate based analysis; format: functional, organism-based
# [46] = tested on: Cladosporium cucumerinum; assay: Antifungal activity against Cladosporium cucumerinum assessed as inhibition of microbial growth by microtiter plate based analysis; format: functional, organism-based
# [47] = tested on: Zymoseptoria tritici; assay: Antifungal activity against Zymoseptoria tritici assessed as inhibition of microbial growth by microtiter plate based analysis; format: functional, organism-based
# [48] = tested on: Trichostrongylus colubriformis; assay: Anthelmintic activity against third stage larvae of Trichostrongylus colubriformis at 0.7 mg/ml by microscope based analysis relative to control; format: functional
# [49] = organism: Homo sapiens; assay: Antagonist activity at vasopressin (unknown origin); details: filed as antagonist
# [50] = tested on: Candida albicans; assay: Antifungal activity against Candida albicans assessed as inhibition of fungal growth by bioautographic TLC method; format: functional
# [51] = tested on: Cladosporium cucumerinum; assay: Antifungal activity against Cladosporium cucumerinum assessed as inhibition of microbial growth by bioautographic TLC method; format: functional
# [52] = tested on: LNCaP; assay: Antiproliferative activity against human LNCaP cells assessed as cell growth inhibition; format: functional, cell-based
# [53] = Antiproliferative activity against human Lu1 cells assessed as cell growth inhibition; format: functional, cell-based
# [54] = tested on: Streptococcus mutans; assay: Antibacterial activity against Streptococcus mutans assessed as lethal dose; format: functional; details: read-out: LD50 (the source's name)
# [55] = Antiproliferative activity against human KBV cells assessed as cell growth inhibition; format: functional, cell-based
# [56] = tested on: ZR-75-1; assay: Antiproliferative activity against human ZR-75-1 cells assessed as cell growth inhibition; format: functional, cell-based
smiles,measurement,setting,value
CC1(C)[C@H]2C[C@H](OC(=O)/C=C/c3ccc(O)cc3)[C@]1(C)C[C@H]2O,IC50,[1],4.5 µg/mL
Oc1cc2cc(c1O)Oc1ccc(cc1)CCc1cccc(O)c1Oc1cccc(c1)CC2 [MARCHANTIN A],MID,[2],2.5 µg/mL
same,ID50,[3],1.85 µg/mL
same,MIC,[4],25 µg/mL
same,IC50,[5],14.4 µM
same,IC50,[6],5.3 µg/mL
same,inhibition,[7],94%
same,IC50,[8],1.59 µM
same,IC50,[9],2.02 µM
same,IC50,[10],3.41 µM
same,MIC,[11],12.5 µg/mL
same,MIC,[12],72.7 µM
same,MIC,[13],25 µg/mL
same,inhibition,[14],70%
same,MIC,[15],25 µg/mL
same,IC50,[16],0.51 µM
same,IC50,[17],18.2 µM
same,MIC,[18],18.1 µM
same,IC50,[19],46.4 µM
same,IC50,[20],2.09 µM
same,MIC,[21],9.1 µM
same,inhibition,[22],40%
same,MIC,[23],72.7 µM
same,IC50,[24],5.5 µM
same,IC50,[25],20 µg/mL
same,ID50,[26],1.85 µg/mL
same,MIC,[27],12.5 µg/mL
same,IC50,[28],0.27 µg/mL
same,inhibition,[29],89%
same,inhibition,[30],45%
same,ID50,[31],1.85 µg/mL
same,MIC,[32],6.25 µg/mL
same,MIC,[33],50 µg/mL
same,inhibition,[34],16%
same,inhibition,[35],97%
same,MIC,[36],4.5 µM
same,MIC,[37],12.5 µg/mL
same,MIC,[38],3.13 µg/mL
same,IC50,[39],3.7 µM
same,MIC,[40],3.13 µg/mL and 0.0069 µM
same,inhibition,[41],99%
same,IC50,[42],14.1 µM
same,IC50,[43],4 µg/mL and 11.5 µM
Cc1cc2c(cc1O)[C@H](C)CC[C@@H]2C(C)C,IC50,[11],4.1 µg/mL
same,IC50,[44],0.9 µg/mL
same,IC50,[45],14.2 µg/mL
same,IC50,[46],11.8 µg/mL
same,IC50,[47],10 µg/mL
COc1ccc(CCc2cccc(OC)c2)cc1,inhibition at 700 µg/mL,[48],85%
CC(C)=CCc1c(CCc2ccccc2)cc(O)c(O)c1O,ID50,[3],2 µg/mL
same,ID50,[49],27 µg/mL
C=C1CC[C@H]2C(=C)CC[C@H]3C(=C)C(=O)O[C@@H]3[C@@H]12 [DEHYDROCOSTUSLACTONE],MIC,[50],5 µg/mL
same,MIC,[51],0.5 µg/mL
CC(C)=CCC[C@]1(C)CCC[C@]2(C)[C@@H](C=O)C(C=O)=CC[C@@H]12,IC50,[52],5.7 µM
same,IC50,[53],5.7 µM
same,LC50,[54],8 µg/mL
same,IC50,[55],2.7 µM
same,IC50,[39],3.2 µM
same,IC50,[56],5.7 µM
